In assay [1] the target is T1, Thyroid hormone receptor beta (Homo sapiens, UniProt P10828).
T1 sequence (P10828 whole entry): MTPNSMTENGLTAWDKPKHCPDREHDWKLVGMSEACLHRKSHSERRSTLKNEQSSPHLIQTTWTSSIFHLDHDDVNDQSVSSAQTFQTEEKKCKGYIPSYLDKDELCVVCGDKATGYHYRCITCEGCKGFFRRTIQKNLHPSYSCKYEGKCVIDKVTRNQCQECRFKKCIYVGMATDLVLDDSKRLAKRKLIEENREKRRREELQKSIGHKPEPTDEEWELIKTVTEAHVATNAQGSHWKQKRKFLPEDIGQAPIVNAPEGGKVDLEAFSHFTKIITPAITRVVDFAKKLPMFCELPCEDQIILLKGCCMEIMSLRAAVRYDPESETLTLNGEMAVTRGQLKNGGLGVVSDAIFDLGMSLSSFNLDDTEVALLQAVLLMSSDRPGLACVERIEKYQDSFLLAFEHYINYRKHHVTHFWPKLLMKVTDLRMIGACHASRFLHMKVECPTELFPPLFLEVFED

The target of assay [2] is T2, Thyroid hormone receptor alpha (Homo sapiens, UniProt P10827).
T2 sequence (P10827 whole entry): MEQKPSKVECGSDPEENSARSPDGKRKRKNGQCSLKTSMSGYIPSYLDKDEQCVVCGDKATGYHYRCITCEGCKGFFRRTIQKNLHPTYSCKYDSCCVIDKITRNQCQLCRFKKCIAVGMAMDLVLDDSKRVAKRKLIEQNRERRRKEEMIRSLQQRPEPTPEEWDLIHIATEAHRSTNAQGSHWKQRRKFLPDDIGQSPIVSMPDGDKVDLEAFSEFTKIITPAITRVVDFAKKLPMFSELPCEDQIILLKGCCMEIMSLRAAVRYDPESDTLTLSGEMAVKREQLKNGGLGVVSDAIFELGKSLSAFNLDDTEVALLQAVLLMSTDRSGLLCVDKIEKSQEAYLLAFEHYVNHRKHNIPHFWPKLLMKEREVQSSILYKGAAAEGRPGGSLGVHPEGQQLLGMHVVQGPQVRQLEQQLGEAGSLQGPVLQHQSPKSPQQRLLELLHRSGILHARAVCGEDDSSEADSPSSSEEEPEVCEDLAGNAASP

The target in assay [3] is T2, Thyroid hormone receptor alpha. The source holds these as a separate data set.
Description: Effect on human TRalpha transactivation activity in HeLa cells by luciferase reporter assay
For assay [4], the target named is T1, Thyroid hormone receptor beta. This is another data set of the same source.
Assay [5] has as its target T2, Thyroid hormone receptor alpha. This is another data set of the same source.
Description: Effect on human TRalpha transactivation activity in U2OS cells by luciferase reporter assay
Assay [6] addresses T1, Thyroid hormone receptor beta. This is another data set of the same source.

pEC50, pKd: −log10 of the molar value.

In the case of `O=C1NC(=O)C(Cc2cc(I)c(Oc3ccc(O)c(Br)c3)c(I)c2)N1` (centres undefined), the pEC50 in assay [1] is 5.28; in assay [3], 7.36; in assay [4], 6.28; in assay [5] it was 6.69. Also, the values for the pKd in assay [2] and in assay [6] were 7.37 and 7.17, respectively.
As to `O=C1NC(=O)C(Cc2cc(I)c(Oc3ccc(O)c(I)c3)c(I)c2)N1` (centres undefined), the pEC50 in assay [1] is 5.70; in assay [3], 7.68; in assay [4] it was 6.67; in assay [5] it was 6.98. Besides, the pKd in assay [2] is 7.62; in assay [6], 7.44.
As for `O=C1NC(=O)C(Cc2cc(I)c(Oc3ccc(O)c(C4CC4)c3)c(I)c2)N1` (centres undefined), the pEC50 in assay [1] is 5.70; in assay [3], 7.41; in assay [4], 7.00; in assay [5], 6.84. The pKd was 7.60 in assay [2] and 7.31 in assay [6].
Turning to `CC(C)c1cc(Oc2c(I)cc(CC3NC(=O)NC3=O)cc2I)ccc1O` (centres undefined), the negative logarithm of the EC50 (pEC50) is 6.41 in assay [1], 7.96 in assay [3], 7.24 in assay [4] and 7.47 in assay [5]. The negative-log Kd (pKd) in assay [2] was 8.92; in assay [6] it was 8.77.
As for `CC(C)c1cc(Oc2c(Br)cc(CC3NC(=O)NC3=O)cc2Br)ccc1O` (centres undefined), the pEC50 in assay [1] was 6.38; in assay [3], 8.08; in assay [4], 7.49; in assay [5], 6.89. For the same compound, the values for the negative logarithm of the Kd (pKd) in assay [2] and in assay [6] were 7.77 and 7.74, respectively.
On to `Cc1cc(Oc2c(I)cc(CC3NC(=O)NC3=O)cc2I)ccc1O` (centres undefined), for which the pEC50 in assay [1] was 5.40; in assay [3], 7.57; in assay [4] it was 6.74; in assay [5], 6.84. Further, the negative-log Kd (pKd) in assay [2] is 7.38; in assay [6], 7.28.
With `CCc1cc(Oc2c(I)cc(CC3NC(=O)NC3=O)cc2I)ccc1O` (centres undefined), the pEC50 was 5.85 in assay [1], 8.00 in assay [3], 7.57 in assay [4] and 7.06 in assay [5]. The pKd in assay [2] is 7.82; in assay [6], 7.74.
For the compound `COc1cc(Oc2c(I)cc(CC3NC(=O)NC3=O)cc2I)ccc1O` (centres undefined), the pEC50 was 5.10 in assay [1], 7.38 in assay [3], 6.58 in assay [4] and 6.06 in assay [5]. For the same compound, the pKd in assay [2] was 7.09; in assay [6] it was 6.92.
As for `O=C1NC(=O)C(Cc2cc(I)c(Oc3ccc(O)cc3)c(I)c2)N1` (centres undefined), the negative-log EC50 (pEC50) was under 4.70 in assay [1], under 5.00 in assay [3], under 5.00 in assay [4] and under 4.70 in assay [5]. Besides, the pKd in assay [2] was 5.77; in assay [6], 5.70.

Source of the values: ChEMBL document CHEMBL1143954, “Characterization of thyroid hormone receptor alpha (TRalpha)-specific analogs with varying inner- and outer-ring substituents” (Bioorg Med Chem, 2008).
